Reference: ChEMBL document CHEMBL4311946, “Mechanistic Insight on the Mode of Action of Colletoic Acid” (J Med Chem, 2019)
Calls of active or inactive are those of the source. The rule behind the calls is not given here.

How the values were obtained:
3T3-L1 [1] = test: Cytotoxicity against mouse 3T3L1 cells measured after 72 hrs by celltiter-glo luminescent cell viability assay; format: ADME, cell-based; settings: 3T3-L1, 72 h
[2] = biological target: T1, 11-beta-hydroxysteroid dehydrogenase type 2 (Homo sapiens, UniProt P80365); test: Inhibition of 11beta-HSD2 (unknown origin) expressed in HEK293 cells using cortisone as substrate measured after 2 hrs in presence of NAD+ by HTRF assay; format: ADME, cell-based
T1 sequence (P80365 whole entry): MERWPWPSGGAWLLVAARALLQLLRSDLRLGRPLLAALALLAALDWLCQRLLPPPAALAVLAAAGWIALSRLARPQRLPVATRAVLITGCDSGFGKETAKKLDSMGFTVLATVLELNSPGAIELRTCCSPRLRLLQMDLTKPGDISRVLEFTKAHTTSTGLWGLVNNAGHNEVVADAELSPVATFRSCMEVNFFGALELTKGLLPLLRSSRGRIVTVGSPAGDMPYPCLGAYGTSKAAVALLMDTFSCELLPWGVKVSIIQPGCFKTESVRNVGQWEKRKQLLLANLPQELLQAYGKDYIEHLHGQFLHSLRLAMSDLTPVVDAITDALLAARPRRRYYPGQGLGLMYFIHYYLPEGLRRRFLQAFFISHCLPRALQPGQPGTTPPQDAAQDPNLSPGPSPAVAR

[3] = biological target: 11-beta-hydroxysteroid dehydrogenase 1 (Homo sapiens, UniProt P28845, C272S); test: Inhibition of N-terminal MKHQHQHQHQHQHQQPL-tagged 11beta-HSD1 C272S mutant (unknown origin) expressed in Escherichia coli BL21 (DE3) using cortisol as substrate measured for 1 hr in presence of NADPH by fluorescence assay
Chain of 11-beta-hydroxysteroid dehydrogenase 1 (P28845 whole entry C272S): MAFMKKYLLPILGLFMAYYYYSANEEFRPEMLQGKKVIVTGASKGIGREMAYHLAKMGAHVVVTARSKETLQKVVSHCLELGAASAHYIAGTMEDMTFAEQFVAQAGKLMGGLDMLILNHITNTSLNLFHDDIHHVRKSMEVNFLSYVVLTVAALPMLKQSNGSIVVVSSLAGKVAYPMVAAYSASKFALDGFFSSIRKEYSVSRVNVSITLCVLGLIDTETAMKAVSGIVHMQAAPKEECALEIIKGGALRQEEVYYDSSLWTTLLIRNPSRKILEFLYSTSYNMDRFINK

[4] = Stability in mouse plasma; format: ADME, cell-free
[5] = Half life in mouse liver microsomes; format: ADME, Microsome
[6] = Half life in human plasma; format: ADME, cell-free
[7] = Half life in human liver microsomes; format: ADME, Microsome
[8] = Half life in simulated gastric fluid; format: ADME
3T3-L1 [9] = test: Inhibition of cell differentiation in mouse 3T3L1 cells assessed as reduction in pre-adipocyte differentiation into matured adipocytes at 50 uM incubated for 48 hrs under induction medium containing dehydrocorticosterone/cortisone followed by shifting to differentiation medium and measured after 7 days by Oil red O staining-based microscopic analysis; format: functional
[10] = biological target: T2, Peroxisome proliferator-activated receptor gamma (Homo sapiens, UniProt P37231); test: Antagonist activity at human PPARgamma expressed in 293H cells assessed as reduction in rosiglitazone-induced transcriptional response preincubated for 30 mins followed by rosiglitazone addition and measured after 16 hrs by reporter gene-based FRET assay; format: cell-based
T2 sequence (P37231 whole entry): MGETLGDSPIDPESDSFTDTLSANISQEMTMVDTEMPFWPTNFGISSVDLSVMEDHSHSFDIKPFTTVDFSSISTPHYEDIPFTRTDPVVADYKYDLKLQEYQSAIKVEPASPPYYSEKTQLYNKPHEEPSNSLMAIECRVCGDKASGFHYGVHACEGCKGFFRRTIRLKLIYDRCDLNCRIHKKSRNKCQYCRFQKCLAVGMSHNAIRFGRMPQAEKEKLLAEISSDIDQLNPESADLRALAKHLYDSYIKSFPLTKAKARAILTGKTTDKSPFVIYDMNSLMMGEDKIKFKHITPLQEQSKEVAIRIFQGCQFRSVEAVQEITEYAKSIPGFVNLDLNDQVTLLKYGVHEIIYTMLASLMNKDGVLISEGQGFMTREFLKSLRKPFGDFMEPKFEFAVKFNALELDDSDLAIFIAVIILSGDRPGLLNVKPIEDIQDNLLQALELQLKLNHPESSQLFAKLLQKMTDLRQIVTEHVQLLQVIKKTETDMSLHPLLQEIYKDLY

SMILES	EC50 (3T3-L1 [1])	IC50 [2]	IC50 [3]	Ki [3]	Stability [4]	t1/2 [5]	half-life [6]	t1/2 [7]	half-life [8]	inhibition (3T3-L1 [9])	EC50 [10]
CC(=O)O[C@H]1C[C@]2(CC=C1C)[C@@H](C(=O)O)CC[C@H]2C(C)C	> 500 µM	> 500 µM	178 µM	–	–	–	–	–	–	–	–
C=C1CC[C@@]2(C[C@@H]1OC(C)=O)[C@@H](C(=O)O)CC[C@H]2C(C)C	> 500 µM	> 500 µM	71 µM	–	–	–	–	–	–	–	–
CC1=CC[C@@]2(C[C@@H]1O)[C@@H](C(N)=O)CC[C@H]2C(C)C	> 500 µM	> 500 µM	> 500 µM	> 500 µM	–	–	–	–	–	–	–
CC(C)[C@@H]1CC[C@H](C(=O)O)[C@]12C[C@@H](O)[C@@](C)(O)[C@@H](O)C2	> 500 µM	> 500 µM	> 500 µM	130 µM	–	–	–	–	–	–	–
C[C@]1(O)CC[C@@]2(C[C@@H]1O)[C@@H](C(=O)O)CC[C@H]2C1CCCCC1	> 500 µM	> 500 µM	379 µM	57.6 µM	–	–	–	–	–	–	–
COC(=O)[C@H]1CC[C@@H](C(C)C)[C@@]12CC=C(C)[C@@H](O)C2	> 500 µM	> 500 µM	> 500 µM	> 500 µM	–	–	–	–	–	–	–
CC1=CC[C@@]2([C@H](O)C1)[C@@H](C(=O)O)CC[C@H]2C1CCCCC1	> 500 µM	> 500 µM	27.2 µM	4.63 µM	Stable	0.3 h	> 48 h	1.29 h	> 6 h	–	–
C=C1CC[C@@]2(C(OC)[C@@H]1O)[C@@H](C(=O)O)CC[C@H]2C(C)C (stereo not given in full)	> 500 µM	> 500 µM	> 500 µM	145 µM	–	–	–	–	–	–	–
CC1=CC[C@@]2(C[C@H]1O)[C@@H](C(C)C)CC[C@H]2C(=O)O	> 500 µM	> 500 µM	80.3 µM	–	–	–	–	–	–	–	–
CC1=CC[C@@]2(C=C1)[C@@H](C(=O)O)CC[C@H]2C1CCCCC1	> 300 µM	> 500 µM	2.2 µM	–	Stable	0.27 h	> 48 h	0.93 h	> 6 h	Active	–
CC(=O)O[C@@H]1C[C@@](C)(O)CC[C@]12[C@@H](C(=O)O)CC[C@H]2C(C)C	> 500 µM	> 500 µM	> 500 µM	289 µM	–	–	–	–	–	–	–
O=C(Nc1ccccc1)c1cc([N+](=O)[O-])ccc1Cl	–	–	–	–	–	–	–	–	–	–	0.002 µM
CC1(C)[C@@H](OC(=O)CCC(=O)O)CC[C@]2(C)[C@H]3C(=O)C=C4[C@@H]5C[C@@](C)(C(=O)O)CC[C@]5(C)CC[C@@]4(C)[C@]3(C)CC[C@@H]12 [CARBENOXOLONE]	> 500 µM	–	–	–	–	–	–	–	–	–	–
CC1=CC[C@@]2(CC1=O)[C@@H](C(=O)O)CC[C@H]2C(C)C	> 500 µM	> 500 µM	42.4 µM	5.15 µM	Stable	2.23 h	> 48 h	6.8 h	> 6 h	–	–
CC1=CC[C@@]2(C[C@@H]1O)[C@@H](C(=O)O)CC[C@H]2C1CCCCC1	> 500 µM	> 500 µM	1.34 µM	0.21 µM	Stable	0.13 h	> 48 h	0.3 h	> 6 h	Active	–
CC1=CC[C@@]2(C[C@@H]1O)[C@H](C(=O)O)CC[C@H]2C(C)C	> 500 µM	> 500 µM	> 500 µM	–	–	–	–	–	–	–	–
CC1=CC[C@@]2([C@H](O)C1)[C@@H](C(=O)O)CC[C@H]2C(C)C	> 500 µM	> 500 µM	55.1 µM	8.23 µM	–	–	–	–	–	–	–
C=C1CC[C@@]2(C[C@@H]1O)[C@@H](C(=O)O)CC[C@H]2C(C)C	> 500 µM	> 500 µM	38.3 µM	–	–	–	–	–	–	–	–
C=C1CC[C@]2(C[C@@H]1O)[C@H](C)CC[C@@H]2C(=O)O	> 500 µM	> 500 µM	162 µM	–	–	–	–	–	–	–	–
